Test results reported in PMC9600963, “Cation ATPase (ATP4) Orthologue Replacement in the Malaria Parasite Plasmodium knowlesi Reveals Species-Specific Responses to ATP4-Targeting Drugs” (mBio, 2022).

Experiments:
Assay in all cases: growth inhibition of orthologue replacement parasite line, SYBR green I (whole-cell read-out)
Assay type in all cases: cell-based
Conditions in all cases: intact P. knowlesi parasites in erythrocytes, 27 h (one life cycle); not a direct enzyme assay
[1] = biological target: T1, PvATP4 (PvATP4^OR line) (Plasmodium vivax, UniProt A5K0L8)
T1 construct: gene PVX_084625; full-length recodonized coding region replacing pkatp4 in P. knowlesi A1-H.1; untagged; intact parasites
From the text: growth inhibition of orthologue replacement parasite line, SYBR green I (whole-cell read-out) on PvATP4 (PvATP4^OR line)

[2] = biological target: T2, PocATP4 (PocATP4^OR line) (Plasmodium ovale, UniProt A0A1D3TM67)
T2 construct: gene ATP4; full-length recodonized coding region replacing pkatp4 in P. knowlesi A1-H.1; untagged; intact parasites
T2 sequence (A0A1D3TM67 1-1433): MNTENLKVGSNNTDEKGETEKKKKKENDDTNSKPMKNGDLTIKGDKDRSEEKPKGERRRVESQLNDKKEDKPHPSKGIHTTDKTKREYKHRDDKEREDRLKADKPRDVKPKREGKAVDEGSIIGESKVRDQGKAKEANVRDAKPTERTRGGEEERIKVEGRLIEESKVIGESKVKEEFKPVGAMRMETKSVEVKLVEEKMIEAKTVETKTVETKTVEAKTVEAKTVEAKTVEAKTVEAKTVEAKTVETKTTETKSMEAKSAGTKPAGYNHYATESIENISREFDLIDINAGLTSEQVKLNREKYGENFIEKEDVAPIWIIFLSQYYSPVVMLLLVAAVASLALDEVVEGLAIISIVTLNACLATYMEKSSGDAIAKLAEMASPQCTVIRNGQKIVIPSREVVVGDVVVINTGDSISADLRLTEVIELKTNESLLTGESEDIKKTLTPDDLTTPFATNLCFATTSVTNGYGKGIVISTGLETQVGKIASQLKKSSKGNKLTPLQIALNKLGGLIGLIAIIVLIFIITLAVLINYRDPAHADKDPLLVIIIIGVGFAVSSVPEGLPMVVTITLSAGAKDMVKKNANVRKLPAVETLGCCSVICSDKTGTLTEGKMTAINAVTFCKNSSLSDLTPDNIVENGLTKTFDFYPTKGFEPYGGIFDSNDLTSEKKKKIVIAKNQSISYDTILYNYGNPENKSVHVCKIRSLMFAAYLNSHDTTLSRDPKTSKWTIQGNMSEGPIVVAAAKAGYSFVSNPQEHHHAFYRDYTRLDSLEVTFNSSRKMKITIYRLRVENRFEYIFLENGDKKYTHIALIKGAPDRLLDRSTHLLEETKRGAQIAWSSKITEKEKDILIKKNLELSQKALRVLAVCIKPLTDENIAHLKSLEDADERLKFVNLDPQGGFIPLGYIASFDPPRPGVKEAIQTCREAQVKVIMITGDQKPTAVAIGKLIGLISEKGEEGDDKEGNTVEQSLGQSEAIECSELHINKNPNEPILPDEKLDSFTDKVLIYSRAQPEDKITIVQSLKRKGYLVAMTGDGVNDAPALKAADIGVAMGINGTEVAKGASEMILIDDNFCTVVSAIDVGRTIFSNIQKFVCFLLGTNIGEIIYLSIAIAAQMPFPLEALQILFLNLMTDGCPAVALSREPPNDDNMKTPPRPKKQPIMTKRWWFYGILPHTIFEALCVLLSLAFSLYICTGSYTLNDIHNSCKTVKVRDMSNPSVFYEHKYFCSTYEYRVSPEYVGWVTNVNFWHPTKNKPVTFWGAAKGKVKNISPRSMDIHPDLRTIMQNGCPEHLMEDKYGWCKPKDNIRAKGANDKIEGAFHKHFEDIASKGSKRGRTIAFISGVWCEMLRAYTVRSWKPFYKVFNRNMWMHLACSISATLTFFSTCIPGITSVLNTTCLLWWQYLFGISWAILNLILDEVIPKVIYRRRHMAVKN
From the text: growth inhibition of orthologue replacement parasite line, SYBR green I (whole-cell read-out) on PocATP4 (PocATP4^OR line)

[3] = biological target: T3, PmATP4 (PmATP4^OR line) (Plasmodium malariae, UniProt A0A1A8WBD6)
T3 construct: gene ATP4; full-length recodonized coding region replacing pkatp4 in P. knowlesi A1-H.1; untagged; intact parasites
T3 sequence (A0A1A8WBD6 1-1380): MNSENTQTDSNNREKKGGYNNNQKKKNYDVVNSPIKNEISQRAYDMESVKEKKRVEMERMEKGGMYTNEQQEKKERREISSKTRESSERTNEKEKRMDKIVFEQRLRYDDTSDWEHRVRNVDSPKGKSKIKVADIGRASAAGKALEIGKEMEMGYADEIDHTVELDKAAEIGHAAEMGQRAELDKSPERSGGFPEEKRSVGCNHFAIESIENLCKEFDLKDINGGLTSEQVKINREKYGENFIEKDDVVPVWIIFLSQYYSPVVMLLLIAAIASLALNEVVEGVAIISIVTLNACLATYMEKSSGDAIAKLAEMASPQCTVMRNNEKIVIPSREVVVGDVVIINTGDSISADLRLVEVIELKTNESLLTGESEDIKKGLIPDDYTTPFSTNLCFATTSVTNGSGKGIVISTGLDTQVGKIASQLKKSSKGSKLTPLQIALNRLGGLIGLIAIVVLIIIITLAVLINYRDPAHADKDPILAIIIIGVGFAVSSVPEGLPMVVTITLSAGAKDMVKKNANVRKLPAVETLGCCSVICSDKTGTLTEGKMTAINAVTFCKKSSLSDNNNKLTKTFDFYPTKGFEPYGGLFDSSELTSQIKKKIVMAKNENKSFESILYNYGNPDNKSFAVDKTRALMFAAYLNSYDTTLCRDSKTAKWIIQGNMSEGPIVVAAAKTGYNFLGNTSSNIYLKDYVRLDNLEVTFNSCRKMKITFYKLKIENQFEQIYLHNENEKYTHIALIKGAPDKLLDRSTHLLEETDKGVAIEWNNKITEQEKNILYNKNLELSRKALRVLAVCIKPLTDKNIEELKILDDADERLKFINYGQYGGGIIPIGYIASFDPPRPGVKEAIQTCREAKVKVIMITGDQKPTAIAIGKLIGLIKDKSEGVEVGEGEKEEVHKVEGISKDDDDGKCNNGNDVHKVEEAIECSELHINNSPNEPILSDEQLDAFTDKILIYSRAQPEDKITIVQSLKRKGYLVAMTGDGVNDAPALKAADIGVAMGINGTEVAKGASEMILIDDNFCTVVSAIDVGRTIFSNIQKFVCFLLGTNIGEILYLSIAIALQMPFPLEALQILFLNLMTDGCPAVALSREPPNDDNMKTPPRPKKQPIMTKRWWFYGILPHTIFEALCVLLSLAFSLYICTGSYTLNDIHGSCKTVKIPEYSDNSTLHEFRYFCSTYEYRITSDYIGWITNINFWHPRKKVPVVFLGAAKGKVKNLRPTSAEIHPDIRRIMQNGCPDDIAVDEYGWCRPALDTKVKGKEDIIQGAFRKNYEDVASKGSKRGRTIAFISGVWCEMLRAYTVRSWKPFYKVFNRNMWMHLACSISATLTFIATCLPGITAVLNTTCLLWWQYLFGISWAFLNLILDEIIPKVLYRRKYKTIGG
From the text: growth inhibition of orthologue replacement parasite line, SYBR green I (whole-cell read-out) on PmATP4 (PmATP4^OR line)

[4] = biological target: T4, PkATP4 (PkATP4^OR line) (Plasmodium knowlesi, UniProt A0A384LKC1)
T4 construct: gene PKNH_1312000; untagged; intact parasites
T4 sequence (A0A384LKC1 1-1293): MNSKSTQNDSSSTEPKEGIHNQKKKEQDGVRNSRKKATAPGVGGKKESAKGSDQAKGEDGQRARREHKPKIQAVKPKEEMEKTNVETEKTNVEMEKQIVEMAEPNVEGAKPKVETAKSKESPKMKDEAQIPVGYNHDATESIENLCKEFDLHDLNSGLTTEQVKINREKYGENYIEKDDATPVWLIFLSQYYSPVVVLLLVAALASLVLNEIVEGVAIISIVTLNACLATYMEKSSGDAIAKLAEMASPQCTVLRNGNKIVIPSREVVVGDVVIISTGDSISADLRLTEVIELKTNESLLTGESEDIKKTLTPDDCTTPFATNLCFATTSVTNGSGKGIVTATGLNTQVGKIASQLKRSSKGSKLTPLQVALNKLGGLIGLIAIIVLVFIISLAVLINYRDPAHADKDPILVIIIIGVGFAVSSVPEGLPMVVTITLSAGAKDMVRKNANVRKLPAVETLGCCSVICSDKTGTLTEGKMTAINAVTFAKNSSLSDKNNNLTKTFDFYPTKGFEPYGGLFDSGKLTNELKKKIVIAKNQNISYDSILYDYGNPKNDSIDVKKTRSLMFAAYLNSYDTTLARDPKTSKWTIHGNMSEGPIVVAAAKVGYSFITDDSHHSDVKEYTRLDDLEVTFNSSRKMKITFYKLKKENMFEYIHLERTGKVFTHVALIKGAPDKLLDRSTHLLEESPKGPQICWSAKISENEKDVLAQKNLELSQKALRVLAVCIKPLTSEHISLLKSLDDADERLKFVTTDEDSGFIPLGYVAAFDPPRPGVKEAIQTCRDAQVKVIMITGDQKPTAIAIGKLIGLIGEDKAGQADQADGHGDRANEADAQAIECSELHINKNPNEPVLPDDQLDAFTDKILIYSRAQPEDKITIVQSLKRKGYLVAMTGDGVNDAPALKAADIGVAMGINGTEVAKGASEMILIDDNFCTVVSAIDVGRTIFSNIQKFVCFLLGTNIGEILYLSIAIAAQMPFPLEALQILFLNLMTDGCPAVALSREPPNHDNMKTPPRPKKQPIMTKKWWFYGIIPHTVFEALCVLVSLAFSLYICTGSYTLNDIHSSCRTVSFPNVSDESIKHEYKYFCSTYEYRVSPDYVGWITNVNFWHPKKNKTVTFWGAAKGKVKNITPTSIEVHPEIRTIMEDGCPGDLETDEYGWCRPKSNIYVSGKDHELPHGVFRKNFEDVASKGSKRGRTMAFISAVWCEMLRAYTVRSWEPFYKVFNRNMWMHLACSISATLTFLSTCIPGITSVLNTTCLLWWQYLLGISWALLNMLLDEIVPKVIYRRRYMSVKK
From the text: growth inhibition of orthologue replacement parasite line, SYBR green I (whole-cell read-out) on PkATP4 (PkATP4^OR line)

[5] = biological target: T5, PfATP4 (PfATP4^OR line) (Plasmodium falciparum, UniProt A0A143ZZK9)
T5 construct: gene ATP4; full-length recodonized coding region replacing pkatp4 in P. knowlesi A1-H.1; untagged; intact parasites
From the text: growth inhibition of orthologue replacement parasite line, SYBR green I (whole-cell read-out) on PfATP4 (PfATP4^OR line)

T5 sequence (A0A143ZZK9 whole entry): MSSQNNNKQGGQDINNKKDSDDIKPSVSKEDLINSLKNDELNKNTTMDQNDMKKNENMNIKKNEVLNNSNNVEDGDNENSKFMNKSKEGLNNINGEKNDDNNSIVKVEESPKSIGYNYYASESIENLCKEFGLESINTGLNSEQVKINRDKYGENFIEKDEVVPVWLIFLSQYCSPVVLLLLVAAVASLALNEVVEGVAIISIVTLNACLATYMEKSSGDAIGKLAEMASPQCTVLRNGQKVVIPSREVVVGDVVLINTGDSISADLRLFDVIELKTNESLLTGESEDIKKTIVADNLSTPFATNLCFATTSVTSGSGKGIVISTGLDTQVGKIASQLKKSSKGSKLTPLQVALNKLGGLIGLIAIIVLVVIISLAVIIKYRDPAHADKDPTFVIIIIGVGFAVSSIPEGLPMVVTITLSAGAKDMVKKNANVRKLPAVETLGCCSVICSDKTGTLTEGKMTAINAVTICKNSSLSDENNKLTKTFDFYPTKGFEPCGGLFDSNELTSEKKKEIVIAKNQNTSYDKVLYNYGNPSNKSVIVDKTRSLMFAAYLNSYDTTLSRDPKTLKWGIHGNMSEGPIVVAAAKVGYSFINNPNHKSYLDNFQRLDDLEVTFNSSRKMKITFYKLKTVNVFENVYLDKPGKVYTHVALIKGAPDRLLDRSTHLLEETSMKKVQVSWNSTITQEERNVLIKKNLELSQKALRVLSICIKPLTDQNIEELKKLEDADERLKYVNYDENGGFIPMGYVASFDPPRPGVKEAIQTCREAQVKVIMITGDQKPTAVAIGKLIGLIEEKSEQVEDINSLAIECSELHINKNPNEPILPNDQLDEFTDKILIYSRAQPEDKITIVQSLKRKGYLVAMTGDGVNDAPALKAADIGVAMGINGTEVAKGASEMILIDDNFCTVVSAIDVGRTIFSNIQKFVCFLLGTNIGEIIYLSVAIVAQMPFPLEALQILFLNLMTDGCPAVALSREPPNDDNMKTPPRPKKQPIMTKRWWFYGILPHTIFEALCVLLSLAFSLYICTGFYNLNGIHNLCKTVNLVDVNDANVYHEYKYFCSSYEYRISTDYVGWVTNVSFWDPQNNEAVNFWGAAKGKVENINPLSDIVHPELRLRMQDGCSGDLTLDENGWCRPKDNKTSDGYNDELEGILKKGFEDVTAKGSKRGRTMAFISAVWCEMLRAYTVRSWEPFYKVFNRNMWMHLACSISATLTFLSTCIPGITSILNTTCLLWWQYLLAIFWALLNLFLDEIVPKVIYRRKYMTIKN

PA21A092
EC50, nM (P value) / PA21A092 [1]: 94.8 ± 14.6 nM
EC50, nM (P value) / PA21A092 [2]: 599 ± 70 nM
EC50, nM (P value) / PA21A092 [3]: 92.8 ± 14.7 nM
EC50, nM (P value) / PA21A092 [4]: 126 ± 5.5 nM
EC50, nM (P value) / PA21A092 [5]: 17.8 ± 2.9 nM
